Measurements as given in patent US6300470A, “Antibiotic cryptdin peptides and methods of their use” (priority 1999, dated 2001).

Key:
Assay type in all cases: cell-based
E. coli ML35 = experiment: radial diffusion assay, E. coli ML35; conditions: 10 mM PIPES
Experimental: Purified cryptdin peptides were dissolved at 3 to 300 μg/ml in 0.010% acetic acid and activity was examined against E. coli ML35 (ATCC). In the radial diffusion assay, […] peptide solution was transferred into wells formed in plates of 1% agarose buffered with 10 mM PIPES (pH 7.4) and containing 1×10^6 log-phase bacteria grown in trypticase soy broth. After 3 hr at 37° C., the plates were overlayed with 0.8w agarose containing 2× trypticase soy broth and incubated overnight. The antibacterial activities of cryptdin peptides was compared with the activity of rabbit neutrophil defensin NP-1, which was purified from peritoneal exudates as described by Selsted et al. (J. Biol. Chem. 260:4579-4584 (1985), which is incorporated herein by reference). Antibacterial activity was determined by measuring the diameter of learing around each well and plotted as a function of peptide concentration.

[1] = tested on: isogenic phoP mutant of S. typhimurium (strain CS015 phoP102::Tn10d-Cam); experiment: agar radial diffusion assay, phoP mutant S. typhimurium; conditions: HEPES or PIPES buffer; 100 μg/ml or 300 μg/ml
Experimental: (§1) FIGS. 7.A. and 7.B. depict the antimicrobial activity of mouse cryptain 1 (SEQ ID NO: 6). Samples of purified natural mouse cryptdin 1 (FIG. 7.A.) or rabbit NP-1 (FIG. 7.B.) were dissolved in 0.01% acetic acid and pipetted into wells produced in a 0.6, agarose/0.3% tryptone plate containing 1×10^6 log phase bacterial cells. After incubation at 37° C. for 18 hr, antimicrobial activity was evaluated by measuring the diameters of the clear zones. Closed circles denote wild type S. typhimurium; open circles denote the phoP^- mutant. […]
(§2) Antibacterial activity was measured in an agar radial diffusion assay (Lehrer et al., supra, 1991b) using wild type S. typhimurium (ATCC 10428) or an isogenic phoP mutant of S. typhimurium (strain CS015 phoP102::Tn10d-Cam, Miller et al., supra, 1989). […]
(§3) Purified cryptdin peptides were dissolved at 3 to 300 μg/ml in 0.010% acetic acid and activity was examined against E. coli ML35 (ATCC). […] Antibacterial activity was determined by measuring the diameter of learing around each well and plotted as a function of peptide concentration.

S. aureus = experiment: radial diffusion assay, S. aureus growth inhibition; conditions: higher concentrations (100 μg/ml and 300 μg/ml)
[2] = tested on: wild type S. typhimurium (ATCC 10428); experiment: agar radial diffusion assay, wild type S. typhimurium; conditions: HEPES or PIPES buffer; 100 μg/ml or 300 μg/ml
Experimental: as §1, §2, §3

[3] = tested on: wild type S. typhimuruim cells; experiment: bactericidal assay, wild type S. typhimurium; conditions: 10 μg/ml
Experimental: (§4) In order to determine whether the effect of the cryptdin peptides against E. coli is bacteriostatic or bacteriocidal, bacterial killing was quantitated as a function of time. Bactericidal asgayg were performed by incubating 1-2×10^6 log-phase bacteria in 10 mM PIPES containing 10 μg peptide/ml. After incubation for 15 or 30 min at 37° C., aliquots were removed, serially diluted and plated on trypticase soy agar. Bactericidal activity was quantitated by counting colonies after overnight incubation at 37° C.
(§5) The bactericidal activity of rat cryptdin 1 also was examined. E. coli ML35 cells, S. areus 502A cells or mutant or wild type S. typhimuruim cells were incubated with various concentrations of rat cryptdin 1 or rabbit NP-1.

S. areus 502A cells = experiment: bactericidal assay, S. aureus 502A; conditions: 10 μg/ml
Experimental: as §4, §5

[4] = tested on: mutant S. typhimuruim cells; experiment: bactericidal assay, mutant S. typhimurium
Experimental: as §4, §5

E. coli ML35 cells = experiment: bactericidal assay in suspension, E. coli
Experimental: as §4, §5

Sequence	activity against E. coli ML35 relative to NP-1 (E. coli ML35; compared at 100 μg/ml and 300 μg/ml)	preventing growth of mutant S. typhimurium compared with NP-1 [1]	inhibiting growth of S. aureus compared with same concentration of NP-1 (S. aureus)	inhibiting growth of wild type S. typhimurium compared with NP-1 [2]	killing of wild type S. typhimurium [3]	S. aureus cells killed (S. areus 502A cells)	mutant S. typhimurium cells killed ([4]; 10 μg/ml)	killing of mutant S. typhimurium cells, rat cryptdin 1 compared with NP-1 ([4]; various concentrations)	E. coli cells killed (E. coli ML35 cells; 10 μg/ml)	killing of E. coli cells, rat cryptdin 1 compared with NP-1 (E. coli ML35 cells; various concentrations)	activity against E. coli ML35 relative to rabbit NP-1 (E. coli ML35; at concentration above 100 μg/ml)
GLLCYCRKGHCKRGERVRGTCGIRFLYCCPR [cryptdin 4]	at least 50 ×	more effective than the same concentration of NP-1	more effective than the same concentration of NP-1	more effective than the same concentration of NP-1							
LKQCHCRKFCRPYEKAEGSCRPGLFIKRKICCIQQWTPG [rat cryptdin 1]					relatively ineffective	about 90%	greater than 99%	more effective than NP-1	greater than 99%	more effective than NP-1	
LSKKLICYCRIRGCKRRERVFGTCRNLFLTFVFCC [cryptdin 5]		more effective than the same concentration of NP-1	more effective than the same concentration of NP-1	more effective than the same concentration of NP-1							approximately 5 ×
